US20210393677A1, “COMPOUNDS FOR MODULATION AND AS FUNCTIONAL REPLACEMENT OF ALPHAKETOGLUTARIC ACID (2OG)-DEPENDENT OXYGENASES” (priority 2018, published 2021)

Tests used:
[1] = system: TET enzyme; assay: cell-free TET assay (co-substrate function); assay type: biochemical; conditions: FIG. 16B
[2] = system: TET enzymes in IDH1R132H/+ cells; assay: activation of TET enzymes in IDH1R132H/+ cells (5-hmdC levels); assay type: cell-based, human; conditions: IDH1R132H/+ cells (FIG. 11)
Procedure: Likewise, promotion of the secondary apoptosis occurs, which indicates the recovery of the cell function on a molecular level (cf. FIG. 11). The native 2-OG again enters into the normal cell metabolism and thus again inhibits the malignant derailment of the cell (secondary way of formation of 2-OG from glutamic acid is omitted).
Samples of genomic DNA (20 μg) were hydrolyzed with micrococcal nuclease from Staphylococcus aureus, bovine spleen phosphodiesterase, and bovine intestinal alkaline phosphatase (all from Sigma-Aldrich, Taufkirchen, Germany) to 2′-deoxynucleosides, as described, with modifications of the application. […] Then, DNA hydrolysates were centrifuged (5 min, 16,000×g), and 10 μL of the supernatants were used for the quantification of dC and 5-mdC stable marked references.
Compounds [15N2,13Cl]dC and 5-mdC-d3 (both from Toronto Research Chemicals, Toronto, Canada). […] Chromatographic conditions and settings of the ESI source were as described for the quantification of dC and 5-mdC [62]. […] The quantification of 5-hmdC with respect to the stable isotope-marked standard that were both eluted at 4.9 min from the LC column (the retention times of dC and 5-mdC were 4.7 or 6.0 min, respectively), was performed with the aid of the Multiple Reaction Monitoring (MRM) approach. […] For clear identification, further mass transitions were recorded. […]

[3] = system: HCT116 IDH1+/+ cells; assay: 2-HG content by LC-MS/MS in HCT116 IDH1+/+ cells; assay type: cell-based, human; conditions: ML309 10 μM, untreated 0.15
Procedure: Es is known that IDH1 mutations are connected with a modified IDH1 enzyme function that induces the excess production of neomorphous metabolite 2-hydroxyglutarate. In order to validate the increased frequency of 2-HG in HCT116 IDH1R132H/+ cells compared to HCT116 IDH1+/+ cells, the 2-HG content was analyzed by means of LC-MS/MS analysis (illustration 1). Intracellular 2-HG in IDH1R132H/+ cells was 56 times higher than in IDH1 wildtype cells (8.5 nmol/mg protein or 0.15 nmol/mg protein; 56 times higher; p<0.0001). Furthermore, the treatment with the IDH1 inhibitor ML309 (10 μM) led to a significant reduction of the oncometabolite 2-HG in the HCT116 IDH1R132H/+ cells to (0.3 nmol/mg protein) and to a lower degree of IDH1+/+ (0.04 nmol/mg protein) (Fig.). In contrast, DKA produced only minimum changes in the 2-HG concentrations in the mutated cells (5.9 nmol/mg protein). […] FIG. 10.
HCT116 (ATCC-Nr. CCL-247), a human colorectal carcinoma cell line, was acquired from the American Type Culture Collection (ATCC; https://www.atcc.org/). Human colon carcinoma cells HCT116 IDH1+/+ and HCT116 IDH1R132H/+ come from Horizon Discovery and were let us for test purposes. The cells were cultured in Dulbecco's Modified Eagle's Medium (DMEM) with 2 mM L-glutamine, supplemented with 10% fetal bovine serum (FBS), 45 IU/ml penicillin and 45 IU/ml streptomycin. […]

Row | Compound | effect in the assay [1] | activation of the inhibited TET enzymes [2] | intracellular 2-HG [3] [nmol/mg protein]
1 | O=C(O)C(=O)C(O)C(O)C(O)CO (stereo not drawn) [2-ketogulonic acid] | dose-dependent effect |  | 
2 | Cc1ccccc1C(C(=O)NC1CCCC1)N(C(=O)Cn1cnc2ccccc21)c1cccc(F)c1 (stereo not drawn) [ML309, reference compound] |  | does not activate | 0.04
